Where “and” joins values, the source holds several entries; their conditions need not be identical. Equal entries are not always repeated.
Columns and labels:
[1] = tested on: U2OS; assay: (§1) Here: values are normalized to the positive (DMSO; basel flux = defined as 100% suppression) and negative (250nM Torin1; mTOR inhibitor; maximal inducer of autophagy defined as 0% suppression) control compounds and represented as % of ER-phagy suppression. […] The impact of autophagy induction on cells is complex and depends on the affected target. […] Of note, treatment concentrations may be sub-optimal for specific compounds, leading to false negative annotations.; type: functional, Homo sapiens; details: Compound Concentration 1 uM, Culturing Media DMEM, 1 % Penicillin/Streptomycin, 10% Fetal bovin serum Add-On: blasticidin, Screening Media Control DMEM, 10% Fetal bovin serum Add-On: 1 µg/ml Doxycyclin, Screening Media Samples DMEM
[2] = tested on: U2OS; assay: as §1; type: functional, Homo sapiens; details: Compound Concentration 1 uM, Culturing Media DMEM, 1 % Penicillin/Streptomycin, 10% Fetal bovin serum Add-On: blasticidin, Screening Media Control DMEM, 10% Fetal bovin serum Add-On: 1 µg/ml Doxycyclin, Screening Media Samples DMEM; remark: listed apart in the source
[3] = Timepoint 12 hours, 10% Fetal bovin serum Add-On: 1 µg/ml Doxycyclin 250nM Torin1
[4] = Timepoint 24 hours, 10% Fetal bovin serum Add-On: 1 µg/ml Doxycyclin 250nM Torin1
[5] = Timepoint 36 hours, 10% Fetal bovin serum Add-On: 1 µg/ml Doxycyclin 250nM Torin1
[6] = Timepoint 54 hours, 10% Fetal bovin serum Add-On: 1 µg/ml Doxycyclin 250nM Torin1
[7] = Timepoint 60 hours, 10% Fetal bovin serum Add-On: 1 µg/ml Doxycyclin 250nM Torin1
[8] = Timepoint 12 hours, 10% Fetal bovin serum Add-On: 1 µg/ml Doxycyclin 250nM Torin1, 12 h, 1 µM
[9] = Timepoint 24 hours, 10% Fetal bovin serum Add-On: 1 µg/ml Doxycyclin 250nM Torin1, 24 h, 1 µM
[10] = Timepoint 36 hours, 10% Fetal bovin serum Add-On: 1 µg/ml Doxycyclin 250nM Torin1, 36 h, 1 µM

Row | SMILES | ER-phagy suppression [1, 3] [%] | ER-phagy suppression [1, 4] [%] | ER-phagy suppression [1, 5] [%] | ER-phagy suppression [1, 6] [%] | ER-phagy suppression [2, 3] [%] | ER-phagy suppression [2, 4] [%] | ER-phagy suppression [2, 5] [%] | ER-phagy suppression [2, 7] [%] | ER-phagy suppression [1, 8] | ER-phagy suppression [1, 9] | ER-phagy suppression [1, 10] | ER-phagy suppression ([1]; Timepoint 54 hours, 10% Fetal bovin serum Add-On: 1 µg/ml Doxycyclin 250nM Torin1, 54 h, 1 µM) | ER-phagy suppression [2, 8] | ER-phagy suppression [2, 9] | ER-phagy suppression [2, 10] | ER-phagy suppression ([2]; Timepoint 60 hours, 10% Fetal bovin serum Add-On: 1 µg/ml Doxycyclin 250nM Torin1, 60 h, 1 µM)
1 | O=c1[nH]c2ccc(Cl)cc2c(N[C@@H]2CN3CCC2CC3)c1-c1nc2ccccc2[nH]1 | 27.312 | 66.3141 | 83.8118 | 95.864 | -7.286 | 62.247 | 75.9097 | 86.9183 |  |  |  |  |  |  |  | 
2 | CN1CCC(COc2cnc(-c3cccc(Cn4nc(-c5cccc(C#N)c5)ccc4=O)c3)nc2)CC1 [TEPOTINIB] | 4.664 | -2.8541 | -6.061 | -17.192 | -9.035 | 9.179 | 17.9604 | 23.3369 |  |  |  |  |  |  |  | 
3 | Cn1cc(C2=C(c3cn(C4CCN(Cc5ccccn5)CC4)c4ccccc34)C(=O)NC2=O)c2ccccc21 [ENZASTAURIN] | 5.0599 | -2.39 | -11.3748 | -3.56 | 35.0144 | 19.4915 | 15.6229 | 9.495 |  |  |  |  |  |  |  | 
4 | Cn1ccc(Cn2cnc(-c3ccc(F)cc3)c2-c2ccnc3[nH]ccc23)n1 | 3.096 | -2.866 | 1.074 | 6.853 | -25.1326 | -19.5738 | 5.753 | 8.035 |  |  |  |  |  |  |  | 
5 | C[C@@H]1CN(c2cc(-c3nn(C)c4ccc(OC5(C)CC5)cc34)ncn2)C[C@H](C)O1 [MLi-2-NC] | 6.526 | -15.2571 | -21.814 | -27.1974 | 30.6608 | 32.7197 | 14.6999 | 6.822 |  |  |  |  |  |  |  | 
6 | Cc1c(C(=O)Nc2ccc(Oc3ccnc4[nH]cc(-c5ccccc5)c34)c(F)c2)c(=O)n(-c2ccc(F)cc2)n1C | 3.929 | -12.4432 | -17.5101 | -17.0737 | 11.6236 | -15.4691 | -3.07 | -1.46 |  |  |  |  |  |  |  | 
7 | CC(C)C(=O)Nc1n[nH]c2cc(-c3cccc(NS(=O)(=O)C4CC4)c3)ccc12 | 3.579 | -4.784 | -8.796 | -3.527 | 0.1153 | 4.089 | -6.11 | -14.0127 |  |  |  |  |  |  |  | 
8 | C[C@@H]1CN(CC(=O)Nc2ccc3c(c2)Cc2cccc(-c4cc(=O)cc(N5CCOCC5)o4)c2S3)C[C@H](C)O1 | 73.6735 | 67.8887 | 67.4998 | 71.8155 | 56.3007 | 45.431 | 40.5334 | 35.1087 |  |  |  |  |  |  |  | 
9 | Cc1cnc(-c2cc(Cl)ccc2F)cc1-n1c(=O)n(CC(N)=O)c2cnccc21 [TP-008] | -24.3103 | -37.6592 | -45.8786 | -56.4398 | -1.571 | -13.0499 | -21.2168 | -35.4053 |  |  |  |  |  |  |  | 
10 | Cl.Cl.NC1(c2ccc(-c3nc4ccn5c(=O)[nH]nc5c4cc3-c3ccccc3)cc2)CCC1 | 6.566 | 12.3552 | 31.5322 | 46.784 | 41.5267 | 48.6663 | 54.9602 | 60.1398 |  |  |  |  |  |  |  | 
11 | CN1CCN(Cc2ccc(Nc3ncc(Cl)c(Nc4ccccc4S(=O)(=O)N(C)C)n3)cc2)CC1 [DUBERMATINIB] | -2.878 | -1.86 | 7.295 | 21.9101 | -20.0629 | 4.178 | 12.5384 | 29.2244 |  |  |  |  |  |  |  | 
12 | Cc1ccc(N(C)c2cc(N(C)C3CC3)n3ncc(C#N)c3n2)cc1NC(=O)C1CC1 | 38.742 | 47.4692 | 65.8045 | 75.1314 | 27.2035 | 42.1045 | 58.091 | 60.0735 |  |  |  |  |  |  |  | 
13 | CN(C)[C@H]1C[C@H](n2cnc(-c3ccc(F)cn3)c2-c2ccnc3[nH]ccc23)C1 | 22.3816 | 21.0505 | 31.8624 | 38.0418 | 23.5482 | 2.98 | 12.4603 | 17.3235 |  |  |  |  |  |  |  | 
14 | CC1=C(C(=O)Nc2cc3cn[nH]c3cc2F)C(c2ccc(C(F)(F)F)cc2)CC(=O)N1 (centres undefined) | -59.3717 | -37.062 | 5.409 | 47.7199 | -7.959 | -2.49 | 15.1812 | 22.9185 |  |  |  |  |  |  |  | 
15 | CCC(=O)Nc1cc(Nc2cc(NC3CC3)n3ncc(C#N)c3n2)ccc1C |  |  |  |  |  |  |  |  | 67.8996% and 33.7182% | 72.4419% and 40.8117% | 80.6378% and 60.338% | 84.9565% and 68.6565% | 25.0893% and 12.0462% | 43.9531% and 30.6203% | 57.0471% and 46.34% | 65.9791% and 54.7573%
16 | Cn1cnc2c(F)c(Nc3ccc(Br)cc3Cl)c(C(=O)NOCCO)cc21 [SELUMETINIB] | -10.3683 | 3.869 | 4.29 | 11.1979 | 8.54 | 20.3816 | 25.3525 | 22.2273 |  |  |  |  |  |  |  | 
17 | CCCCN(Cc1ccccc1)C(=O)c1ccc(S(=O)(=O)Nc2ccccc2)cc1 | -7.8361 | -20.651 | -23.4672 | -25.4681 | -1.971 | -6.76 | -4.753 | -26.4705 |  |  |  |  |  |  |  | 
18 | CNc1nc(-c2ccc3c(N)n[nH]c3c2)cc(N2C[C@@H](C(=O)NC3CCCCC3)CC[C@H]2C)n1 | -64.3148 | -57.2907 | -47.7488 | -36.1372 | 0.4494 | -26.9041 | -20.7872 | -21.6855 |  |  |  |  |  |  |  | 

Source: ChEMBL document CHEMBL5724696, “Autophagy assay results for EUbOPEN Chemogenomics Library” (2024)
